The source of these data is paper PMC5514153, “Targeting PTPRZ inhibits stem cell-like properties and tumorigenicity in glioblastoma cells” (Scientific Reports, 2017).

Assay [1] concerns the target T1, PTPRZ1 V1911F (Homo sapiens, UniProt P23471, V1911F).
T1 construct: Point mutants of the PTPRZ1-ICR, PTPRG-ICR, and PTPN1 catalytic domain were generated; GST (N); made in house
In words: Inhibitor sensitivity of point mutant PTPRZ1 V1911F. The format is biochemical. The settings on record: 10 µM, vs wild-type PTPRZ1. The text has this:
Figure 5 Structural basis for PTPRZ inhibition of NAZ2329. (A) An enlarged view of the X-ray structure of human PTPRZ1-D1 complexed with NAZ2329 (PDB ID: 5H08) (left), X-ray structure of the apo (open) form of PTPRZ1-D1 (PDB ID: 5AWX, ref. [6], middle) and a computer-modeled structure of the closed form of PTPRZ1-D1 complexed with a competitive inhibitor, SCB4380 (ref. [6], right), are shown. PTPRZ1-D1 is shown as a gray surface representation, in which Cys1933 at the active site and Val-1911 at the bottom of the allosteric pocket are indicated in red and yellow, respectively. Inhibitors are colored according to the atomic species in a stick figure representation as follows: oxygen (red), nitrogen (blue), sulfur (yellow), and carbon (green). The bottom figures show the conformation of the WPD loop (orange) as cartoon representations, in which Asp1901 and Cys1933 are indicated by orange and red spheres, respectively. Side chains of Arg1939 at the active site, Met1902 in the WPD loop, and Val-1911 at the bottom of the allosteric binding area are also shown in the stick representation. (B) LigPlot representation of the NAZ2329 interaction with PTPRZ1-D1. The predicted hydrogen bonds (broken black lines) and residues (red spoked arcs) involved in the hydrophobic interaction are shown. […]

The target in assay [2] is T2, hPTPRZ1 (D1) (Homo sapiens, UniProt P23471).
T2 construct: human PTPRZ1-D1 (amino acid residues, 1,698-2,000)
In words: In vitro PTPase assay (DiFMUP), PTPRZ1 D1 domain. The class given is biochemical. The settings on record: first PTP domain fragment.

T1 sequence (P23471 1663-2315 V1911F limits assumed): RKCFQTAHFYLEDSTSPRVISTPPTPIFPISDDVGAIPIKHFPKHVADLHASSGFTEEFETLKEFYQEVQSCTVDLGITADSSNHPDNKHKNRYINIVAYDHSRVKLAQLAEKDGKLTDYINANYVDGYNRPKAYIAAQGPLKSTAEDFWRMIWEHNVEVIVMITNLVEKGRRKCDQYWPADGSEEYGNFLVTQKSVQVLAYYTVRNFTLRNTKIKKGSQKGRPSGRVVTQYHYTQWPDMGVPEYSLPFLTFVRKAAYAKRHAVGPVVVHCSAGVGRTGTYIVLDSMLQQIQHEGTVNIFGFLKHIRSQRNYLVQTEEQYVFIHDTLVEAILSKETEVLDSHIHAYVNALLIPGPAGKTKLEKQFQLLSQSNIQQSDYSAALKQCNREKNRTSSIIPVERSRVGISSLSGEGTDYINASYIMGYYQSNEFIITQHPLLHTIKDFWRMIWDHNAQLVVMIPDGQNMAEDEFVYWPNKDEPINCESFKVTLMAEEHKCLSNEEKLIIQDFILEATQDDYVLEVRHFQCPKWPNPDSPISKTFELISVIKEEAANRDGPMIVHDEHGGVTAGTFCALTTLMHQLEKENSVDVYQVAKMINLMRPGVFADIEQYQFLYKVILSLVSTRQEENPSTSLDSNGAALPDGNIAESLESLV
T2 sequence (P23471 1698-2000 limits assumed): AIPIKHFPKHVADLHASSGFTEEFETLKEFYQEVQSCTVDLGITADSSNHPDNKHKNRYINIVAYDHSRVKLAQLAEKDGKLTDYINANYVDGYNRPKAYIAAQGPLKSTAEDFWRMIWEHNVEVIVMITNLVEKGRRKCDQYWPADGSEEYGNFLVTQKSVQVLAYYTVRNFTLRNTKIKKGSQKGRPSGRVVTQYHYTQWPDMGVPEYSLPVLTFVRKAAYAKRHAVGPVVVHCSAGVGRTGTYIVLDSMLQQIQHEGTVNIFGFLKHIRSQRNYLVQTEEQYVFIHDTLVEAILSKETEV

One may read the IC50 as the concentration that inhibits the measured activity by half. Low values mean greater potency in that assay, high ones weaker potency in that assay. `CCOc1ccc(C(F)(F)F)cc1CSc1ccsc1C(=O)NS(=O)(=O)c1ccccc1` [NAZ2329]: the “effect of V1911F substitution on sensitivity to inhibitor” value in assay [1] is recorded as “markedly reduced the sensitivity”. Also, in assay [2], the half-maximal inhibitory concentration (IC50) was 1100 nM.
